ChEMBL document CHEMBL1201862, “PubChem BioAssay data set” (2004)
The source made the active and inactive calls.

Experiments:
Leucine aminopeptidase = target: T1, Leucine aminopeptidase (Plasmodium falciparum 3D7, UniProt Q8IL11); experiment: P. falciparum M17LAP inhibitors, primary screen, biochemical, fluorogenic H-Leu-NHMec substrate, 1536-well (AID 1619); format: functional
T1 sequence (Q8IL11 whole entry): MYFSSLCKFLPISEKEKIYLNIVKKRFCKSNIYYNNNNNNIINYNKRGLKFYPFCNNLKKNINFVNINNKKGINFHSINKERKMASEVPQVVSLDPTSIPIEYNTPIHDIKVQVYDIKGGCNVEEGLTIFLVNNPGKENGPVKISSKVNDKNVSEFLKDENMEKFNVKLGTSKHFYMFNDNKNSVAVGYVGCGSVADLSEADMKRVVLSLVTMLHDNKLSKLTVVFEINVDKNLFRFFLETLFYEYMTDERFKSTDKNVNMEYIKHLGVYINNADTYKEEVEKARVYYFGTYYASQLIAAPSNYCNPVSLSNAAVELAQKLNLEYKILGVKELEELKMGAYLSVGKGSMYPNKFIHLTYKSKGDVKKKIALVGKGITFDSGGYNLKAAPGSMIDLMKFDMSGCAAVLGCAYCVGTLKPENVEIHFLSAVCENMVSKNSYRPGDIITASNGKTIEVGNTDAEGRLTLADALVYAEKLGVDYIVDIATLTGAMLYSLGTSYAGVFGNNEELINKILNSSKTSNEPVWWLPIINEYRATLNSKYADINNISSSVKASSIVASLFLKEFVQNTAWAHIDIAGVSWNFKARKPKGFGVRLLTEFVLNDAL

[1] = target: Aryl hydrocarbon receptor (Homo sapiens, UniProt P35869); experiment: Luminescence-based cell-based high throughput dose response assay for activators of the Aryl Hydrocarbon Receptor (AHR). [Related pubchem assays: 2796 (Primary screen (AHR activators in singlicate)), 2845 (Confirmation screen (AHR activators in triplicate)), 434939 (Counterscreen (PXR activators in triplicate)), 2804 (Summary (AHR activators))]; format: ADME
NADPH oxidase 1 = target: T2, NADPH oxidase 1 (Homo sapiens, UniProt Q9Y5S8); experiment: Late stage results from the probe development effort to identify inhibitors of NOX1: HEK/293 IC50. [Related pubchem assays: 1796 (Summary AID (NOX1)), 2752 (Primary screen (NOX1 inhibitors, synthesized analogs set 2)), 2664 (Primary screen (NOX1 inhibitors, synthesized analogs)), 1792 (Primary Screen (NOX1)), 2545 (Confirmation screen (NOX1 …; format: functional
T2 sequence (Q9Y5S8 whole entry): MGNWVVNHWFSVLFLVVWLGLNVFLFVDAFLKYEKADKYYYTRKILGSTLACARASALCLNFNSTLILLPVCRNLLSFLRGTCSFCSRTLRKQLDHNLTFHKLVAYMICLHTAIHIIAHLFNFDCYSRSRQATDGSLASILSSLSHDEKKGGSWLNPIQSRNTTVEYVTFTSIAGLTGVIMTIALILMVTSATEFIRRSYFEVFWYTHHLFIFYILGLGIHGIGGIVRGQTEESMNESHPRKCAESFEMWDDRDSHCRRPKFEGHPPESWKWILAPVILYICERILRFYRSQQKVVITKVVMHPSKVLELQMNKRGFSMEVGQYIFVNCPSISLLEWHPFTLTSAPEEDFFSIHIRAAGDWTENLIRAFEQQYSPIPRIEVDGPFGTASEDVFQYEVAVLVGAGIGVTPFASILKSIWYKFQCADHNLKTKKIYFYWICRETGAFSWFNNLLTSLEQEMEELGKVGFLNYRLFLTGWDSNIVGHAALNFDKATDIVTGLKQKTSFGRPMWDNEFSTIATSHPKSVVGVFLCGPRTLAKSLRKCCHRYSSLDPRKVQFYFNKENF

Vero = experiment: host cell cytotoxicity of antiviral hits, dose response, cytotoxicity control for West Nile virus antiviral project, secondary assay (AID 1650); format: functional; conditions: Chlorocebus sabaeus
[2] = Luminescence Cell-Based Dose Retest to Confirm Inhibitors of Cancer Stem Cells. [Related pubchem assays (depositor defined):AID2717, AID2721]; format: functional; conditions: Homo sapiens
[3] = target: T3, Tyrosine-protein phosphatase non-receptor type 7 (Homo sapiens, UniProt P35236); experiment: inhibitors of human HePTP phosphatase, […], biochemical, absorbance, leukemia target (AID 521); format: functional
T3 sequence (P35236 whole entry): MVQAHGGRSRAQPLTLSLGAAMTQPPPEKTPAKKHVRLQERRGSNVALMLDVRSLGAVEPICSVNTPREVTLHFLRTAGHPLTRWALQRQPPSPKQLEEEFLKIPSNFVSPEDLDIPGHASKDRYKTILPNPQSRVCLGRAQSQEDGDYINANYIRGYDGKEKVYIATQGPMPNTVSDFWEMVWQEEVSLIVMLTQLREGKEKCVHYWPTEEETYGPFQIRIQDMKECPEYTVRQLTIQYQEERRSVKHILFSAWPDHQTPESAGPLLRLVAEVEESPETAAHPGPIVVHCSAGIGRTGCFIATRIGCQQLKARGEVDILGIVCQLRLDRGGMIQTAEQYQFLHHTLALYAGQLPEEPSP

[4] = target: Glyceraldehyde-3-phosphate dehydrogenase (Homo sapiens, UniProt P04406)
Bcl-2-related protein A1 [5] = target: T4, Bcl-2-related protein A1 (Mus musculus, UniProt Q07440); experiment: Bfl-1 inhibitors blocking BH3 peptide binding, confirmation, biochemical, TR-FRET, mouse Bfl-1 (AID 621);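 further: TR-FRET binding of GST-Bfl-1 to FITC-labelled Bid peptide via terbium antibody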
T4 sequence (Q07440 whole entry): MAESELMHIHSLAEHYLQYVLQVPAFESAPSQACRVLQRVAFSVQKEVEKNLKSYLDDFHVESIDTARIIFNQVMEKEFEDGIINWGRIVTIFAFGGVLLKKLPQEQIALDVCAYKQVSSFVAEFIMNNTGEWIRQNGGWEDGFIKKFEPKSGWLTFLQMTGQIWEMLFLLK

Bcl-2-related protein A1 [6] = target: T4, Bcl-2-related protein A1; experiment: Bfl-1 binding inhibitors, SAR follow-up, biochemical, fluorescence polarization (AID 1070)
INS1 = experiment: beta cell apoptosis inhibitors, cytokine rescue, dose response, luminescence, retest (AID 449756); format: functional, cell-based; conditions: Rattus norvegicus;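 further: cell death triggered by IL-1 beta plus TNF-alpha plus IFN-gamma mixture; protective hits raise ATP signal compared with cytokine alone wells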
[7] = C. albicans growth with fluconazole, confirmation, fluorescence, retest (AID 2467); format: functional, cell-based
[8] = cytotoxicity in HPDE-C7 cells, cell-based, fluorescence, HTS (AID 430); format: functional; conditions: Homo sapiens
[9] = cytotoxicity in HEK-293T cells, dose response, cytotoxicity control for BCR NF-kB inhibitor project, luminescence, B-cell screen hits (AID 489021); format: functional, cell-based;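 further: HEK-293T cells carrying an NF-kB luciferase reporter; cells exposed to compound for about 14 hours before viability readout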
[10] = Luminescence-based dose response cell-based high throughput screening assay for cytotoxic compounds using the IEC-6 intestinal epithelial cell line. [Related pubchem assays: 1858 (Summary AID.), 1825 (Counterscreen.), 1907 (Confirmation screen.)]; format: functional
[11] = cytotoxicity in KRAS-transformed pancreatic duct cells, primary screen, cell-based, fluorescence, HTS (AID 431); format: functional; conditions: Homo sapiens;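 further: cell line used: HPDE-C7K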
[12] = NIH-3T3 fibroblast cytotoxicity, dose response, cytotoxicity control, cell-based, fluorescence, Alamar Blue, secondary assay (AID 2327); format: functional;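 further: NIH-3T3 mouse fibroblasts cultured with fluconazole at 8 µg/mL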
[13] = target: Histone-lysine N-methyltransferase NSD2 (Homo sapiens, UniProt O96028); format: biochemical
[14] = cytotoxicity toward NIH3T3 fibroblasts, dose response, counter-screen, cell-based, ATP luminescence, mouse fibroblasts (AID 2010); format: functional;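 further: cells exposed to compound for about 90 hours before reading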
[15] = target: T5, Apoptotic protease-activating factor 1 (Homo sapiens, UniProt O14727); format: functional
T5 sequence (O14727 whole entry): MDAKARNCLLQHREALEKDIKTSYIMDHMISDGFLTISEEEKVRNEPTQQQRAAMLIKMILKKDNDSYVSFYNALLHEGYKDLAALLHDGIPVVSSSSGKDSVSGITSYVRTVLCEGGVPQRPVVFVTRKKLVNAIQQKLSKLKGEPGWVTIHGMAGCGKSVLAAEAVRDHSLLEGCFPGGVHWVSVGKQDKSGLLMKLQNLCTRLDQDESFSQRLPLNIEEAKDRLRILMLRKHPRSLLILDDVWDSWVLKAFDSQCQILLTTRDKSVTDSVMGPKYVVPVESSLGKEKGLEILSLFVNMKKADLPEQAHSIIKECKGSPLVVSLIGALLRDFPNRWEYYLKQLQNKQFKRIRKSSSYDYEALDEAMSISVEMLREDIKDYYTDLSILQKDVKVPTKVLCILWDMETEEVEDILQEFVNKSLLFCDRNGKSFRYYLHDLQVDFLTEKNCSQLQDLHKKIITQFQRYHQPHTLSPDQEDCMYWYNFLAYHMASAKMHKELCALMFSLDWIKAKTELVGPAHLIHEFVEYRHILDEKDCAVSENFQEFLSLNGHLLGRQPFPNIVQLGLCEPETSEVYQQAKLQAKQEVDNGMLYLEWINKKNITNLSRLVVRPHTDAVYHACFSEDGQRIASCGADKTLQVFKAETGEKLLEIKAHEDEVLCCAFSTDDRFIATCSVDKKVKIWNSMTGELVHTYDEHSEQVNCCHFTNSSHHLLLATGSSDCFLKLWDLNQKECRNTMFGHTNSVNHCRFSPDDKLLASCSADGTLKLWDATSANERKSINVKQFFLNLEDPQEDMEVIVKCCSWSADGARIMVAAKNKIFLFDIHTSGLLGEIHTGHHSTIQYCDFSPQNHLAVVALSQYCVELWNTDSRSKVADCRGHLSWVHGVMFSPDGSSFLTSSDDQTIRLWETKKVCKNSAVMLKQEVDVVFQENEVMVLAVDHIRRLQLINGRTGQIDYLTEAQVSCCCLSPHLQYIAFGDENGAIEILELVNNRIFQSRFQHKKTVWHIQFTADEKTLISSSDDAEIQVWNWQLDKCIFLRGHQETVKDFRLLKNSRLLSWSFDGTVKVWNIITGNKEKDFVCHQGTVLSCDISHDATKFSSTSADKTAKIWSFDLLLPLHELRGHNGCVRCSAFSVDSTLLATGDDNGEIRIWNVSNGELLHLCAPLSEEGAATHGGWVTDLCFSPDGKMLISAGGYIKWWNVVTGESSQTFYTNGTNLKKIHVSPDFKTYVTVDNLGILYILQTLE

[16] = inhibitors of intracellular T. cruzi replication, confirmation, NIH3T3 host cells, beta-gal luminescence (AID 2044); format: functional, cell-based;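 further: intracellular parasites grown in NIH/3T3 mouse fibroblasts as host cells; luminescent beta-galactosidase reporter signal from transgenic T. cruzi replicating inside host cells; inhibitors lower the luminescence signal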
[17] = target: Serine/threonine-protein phosphatase (Homo sapiens, UniProt Q9BPW0); experiment: PP5 phosphatase inhibitors, dose response, biochemical, fluorescence (AID 2395)
[18] = target: RNA-editing ligase 1, mitochondrial (Trypanosoma brucei brucei, UniProt P86926); experiment: TbREL1 ligase inhibitors, dose response, biochemical, fluorescence, Trypanosoma brucei (AID 1117295); format: functional
[19] = target: Serine/threonine-protein phosphatase PP1-alpha catalytic subunit (Homo sapiens, UniProt P62136); experiment: PP1 phosphatase inhibitors, dose response, biochemical, fluorescence (AID 2394)
Chain of Serine/threonine-protein phosphatase PP1-alpha catalytic subunit (P62136 whole entry): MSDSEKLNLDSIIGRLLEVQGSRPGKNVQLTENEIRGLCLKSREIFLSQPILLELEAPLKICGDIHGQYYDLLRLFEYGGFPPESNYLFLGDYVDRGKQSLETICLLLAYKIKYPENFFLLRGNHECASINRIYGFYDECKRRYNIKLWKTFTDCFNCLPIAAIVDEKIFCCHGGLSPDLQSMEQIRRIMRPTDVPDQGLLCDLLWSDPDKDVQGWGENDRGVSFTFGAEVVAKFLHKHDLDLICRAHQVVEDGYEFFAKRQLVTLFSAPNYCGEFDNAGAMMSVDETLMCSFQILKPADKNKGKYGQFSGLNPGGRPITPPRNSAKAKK

Chain of RNA-editing ligase 1, mitochondrial (P86926 whole entry): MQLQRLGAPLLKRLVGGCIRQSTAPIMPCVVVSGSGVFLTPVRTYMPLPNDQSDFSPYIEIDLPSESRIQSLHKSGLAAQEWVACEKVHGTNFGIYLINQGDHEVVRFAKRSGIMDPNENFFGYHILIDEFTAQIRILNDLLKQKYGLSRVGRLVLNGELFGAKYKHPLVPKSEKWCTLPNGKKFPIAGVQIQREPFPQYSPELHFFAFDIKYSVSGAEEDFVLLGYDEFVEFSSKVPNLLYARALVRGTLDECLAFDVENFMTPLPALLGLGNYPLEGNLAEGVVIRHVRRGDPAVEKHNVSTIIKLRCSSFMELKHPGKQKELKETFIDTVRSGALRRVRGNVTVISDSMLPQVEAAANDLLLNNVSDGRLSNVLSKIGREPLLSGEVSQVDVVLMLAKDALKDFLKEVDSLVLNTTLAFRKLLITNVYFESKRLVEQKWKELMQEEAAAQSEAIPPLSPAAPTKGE
Chain of Serine/threonine-protein phosphatase (Q9BPW0 whole entry): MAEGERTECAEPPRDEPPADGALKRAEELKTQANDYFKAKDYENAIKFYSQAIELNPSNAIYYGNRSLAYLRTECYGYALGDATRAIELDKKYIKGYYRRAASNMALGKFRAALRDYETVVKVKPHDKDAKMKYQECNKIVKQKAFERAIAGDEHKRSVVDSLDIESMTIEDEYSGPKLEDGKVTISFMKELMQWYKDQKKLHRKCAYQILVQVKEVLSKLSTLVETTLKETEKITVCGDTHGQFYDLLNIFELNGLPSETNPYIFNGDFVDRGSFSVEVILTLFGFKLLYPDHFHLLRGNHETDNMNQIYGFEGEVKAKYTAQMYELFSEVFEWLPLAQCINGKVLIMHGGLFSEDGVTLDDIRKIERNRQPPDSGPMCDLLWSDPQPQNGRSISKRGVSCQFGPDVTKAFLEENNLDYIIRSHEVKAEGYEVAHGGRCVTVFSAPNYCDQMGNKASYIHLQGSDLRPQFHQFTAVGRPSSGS
Chain of Histone-lysine N-methyltransferase NSD2 (O96028 whole entry): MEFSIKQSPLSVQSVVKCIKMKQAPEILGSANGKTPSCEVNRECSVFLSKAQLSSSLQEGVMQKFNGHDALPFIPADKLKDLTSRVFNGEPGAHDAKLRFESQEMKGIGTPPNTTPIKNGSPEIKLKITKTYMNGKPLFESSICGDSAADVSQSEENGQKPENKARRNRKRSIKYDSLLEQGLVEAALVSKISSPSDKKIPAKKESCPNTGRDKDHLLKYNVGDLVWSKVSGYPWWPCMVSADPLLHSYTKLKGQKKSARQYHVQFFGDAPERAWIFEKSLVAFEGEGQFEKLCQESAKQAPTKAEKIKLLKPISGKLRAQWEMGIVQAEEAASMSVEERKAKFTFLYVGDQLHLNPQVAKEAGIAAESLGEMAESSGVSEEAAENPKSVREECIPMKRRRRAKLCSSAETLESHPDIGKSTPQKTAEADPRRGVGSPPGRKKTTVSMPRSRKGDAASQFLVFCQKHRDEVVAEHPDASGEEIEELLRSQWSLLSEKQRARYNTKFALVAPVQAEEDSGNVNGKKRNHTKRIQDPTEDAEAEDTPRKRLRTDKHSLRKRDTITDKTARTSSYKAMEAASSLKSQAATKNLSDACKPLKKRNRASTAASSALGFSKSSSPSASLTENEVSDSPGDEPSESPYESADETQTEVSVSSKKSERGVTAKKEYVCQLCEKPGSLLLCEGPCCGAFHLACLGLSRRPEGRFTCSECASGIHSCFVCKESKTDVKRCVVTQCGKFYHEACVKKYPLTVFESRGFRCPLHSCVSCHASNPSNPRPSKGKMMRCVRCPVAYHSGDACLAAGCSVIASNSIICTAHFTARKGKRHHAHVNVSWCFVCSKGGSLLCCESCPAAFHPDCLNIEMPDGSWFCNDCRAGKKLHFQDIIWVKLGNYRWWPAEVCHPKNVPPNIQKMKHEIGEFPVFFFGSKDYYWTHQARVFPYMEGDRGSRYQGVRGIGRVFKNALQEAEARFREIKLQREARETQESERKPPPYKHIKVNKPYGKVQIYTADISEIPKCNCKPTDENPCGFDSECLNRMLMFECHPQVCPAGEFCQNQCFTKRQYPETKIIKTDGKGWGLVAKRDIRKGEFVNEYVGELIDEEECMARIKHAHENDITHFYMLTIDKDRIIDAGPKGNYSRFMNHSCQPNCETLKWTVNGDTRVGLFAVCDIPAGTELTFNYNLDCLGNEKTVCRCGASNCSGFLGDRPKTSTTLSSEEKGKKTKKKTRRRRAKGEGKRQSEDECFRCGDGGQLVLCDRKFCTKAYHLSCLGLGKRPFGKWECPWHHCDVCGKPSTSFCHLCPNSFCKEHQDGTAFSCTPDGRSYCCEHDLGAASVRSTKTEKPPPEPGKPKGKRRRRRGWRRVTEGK
Chain of Aryl hydrocarbon receptor (P35869 whole entry): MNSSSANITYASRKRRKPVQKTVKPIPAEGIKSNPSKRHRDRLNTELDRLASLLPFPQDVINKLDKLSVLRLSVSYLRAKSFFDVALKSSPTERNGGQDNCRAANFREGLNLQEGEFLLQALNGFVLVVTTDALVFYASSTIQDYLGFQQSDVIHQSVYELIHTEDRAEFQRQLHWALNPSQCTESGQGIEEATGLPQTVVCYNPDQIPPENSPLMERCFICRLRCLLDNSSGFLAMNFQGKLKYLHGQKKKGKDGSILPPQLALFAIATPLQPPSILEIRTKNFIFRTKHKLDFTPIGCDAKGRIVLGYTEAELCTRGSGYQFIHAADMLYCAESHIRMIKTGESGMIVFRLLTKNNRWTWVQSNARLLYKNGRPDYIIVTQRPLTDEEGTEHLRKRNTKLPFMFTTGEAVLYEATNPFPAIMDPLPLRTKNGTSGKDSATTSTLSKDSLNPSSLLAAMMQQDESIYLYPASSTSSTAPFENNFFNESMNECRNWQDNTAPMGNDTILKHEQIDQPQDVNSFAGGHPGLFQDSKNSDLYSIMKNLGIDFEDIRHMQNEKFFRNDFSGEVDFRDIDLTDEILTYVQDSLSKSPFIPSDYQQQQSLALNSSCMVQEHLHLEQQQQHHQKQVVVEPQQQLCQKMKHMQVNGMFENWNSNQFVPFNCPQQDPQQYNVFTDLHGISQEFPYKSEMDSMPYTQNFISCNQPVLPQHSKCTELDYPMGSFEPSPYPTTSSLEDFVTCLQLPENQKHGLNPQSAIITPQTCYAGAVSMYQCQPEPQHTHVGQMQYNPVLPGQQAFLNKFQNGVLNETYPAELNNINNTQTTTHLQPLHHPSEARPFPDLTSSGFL
Chain of Glyceraldehyde-3-phosphate dehydrogenase (P04406 whole entry): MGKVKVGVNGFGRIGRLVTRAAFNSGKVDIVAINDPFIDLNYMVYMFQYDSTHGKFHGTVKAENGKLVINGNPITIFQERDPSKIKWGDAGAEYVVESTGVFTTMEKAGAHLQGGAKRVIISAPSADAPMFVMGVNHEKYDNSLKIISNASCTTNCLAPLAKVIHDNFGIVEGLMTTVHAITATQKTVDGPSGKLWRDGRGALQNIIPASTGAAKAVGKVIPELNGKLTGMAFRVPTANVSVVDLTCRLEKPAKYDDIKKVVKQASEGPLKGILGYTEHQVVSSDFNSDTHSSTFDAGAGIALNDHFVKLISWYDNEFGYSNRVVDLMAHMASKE

Nc1[nH]ncc1C(=O)Nc1cccc(C(F)(F)F)c1
IC50 (Leucine aminopeptidase): 44.5 µM (active)
EC50 [1]: 12.5 µM (not active)

c1ccc2c(c1)Nc1nc3ccccc3nc1N2
IC50 (NADPH oxidase 1): 360 nM (active)

Cc1cc(C)c(C(=O)/C=C/c2ccc(C(C)C)cc2)c(O)n1
CC50 (Vero): 35.8 µM (active)
AC50 [2]: 9.65 µM (active)

CCc1ccccc1N(CC(=O)OC)S(C)(=O)=O
IC50 [3]: > 100 µM (not active)

COCCNC1=C(Cl)C(=O)N(c2ccc(Cl)c(Cl)c2)C1=O
IC50 [4]: > 100 µM (not active)
IC50 (Bcl-2-related protein A1 [5]): 4.96 µM (active)
IC50 (Bcl-2-related protein A1 [6]): 12.6 µM (active)

C[C@H]1CCC/C=C/C2C[C@H](O)CC2[C@H](O)/C=C/C(=O)O1 (stereo partly drawn)
AC50 (INS1): 1.01 µM (active)
EC50 [7]: 843 nM (active)
EC50 [8]: 230 nM (active)
IC50 [9]: > 80 µM (inactive)
IC50 [10]: 446 nM (active)
EC50 [11]: 240 nM (active)
EC50 [12]: 2.37 µM (inconclusive)

Oc1ccccc1/C=N/Nc1cc(N2CCCC2)nc(N2CCCC2)n1
AC50 [13]: 1.97 µM (active)
EC50 [14]: > 60 µM (inconclusive)
IC50 [15]: 1.03 µM (active)
EC50 [16]: 1.85 µM (active)
IC50 [17]: 4.26 µM (active)
IC50 [18]: > 96.6 µM (inactive)
IC50 [19]: 34.4 µM (not active)
